According to patent US12649750B2, “Macrocyclic compounds, compositions, and methods of using thereof” (Sionna Therapeutics Inc., priority 2022, dated 2026):

Legend:
CFTR = target: T1, CFTR (Homo sapiens, UniProt P13569, DEL508-508); test: TECC24 AUC fold over DMSO @10 μM, CFTR-mediated transepithelial chloride transport in CF-HBE cells; assay type: cell-based; conditions: test agent AUC divided by DMSO vehicle AUC, primary CF-HBE cells, ΔF508 homozygous donor, 48 hours incubation
T1 construct: Primary human bronchial epithelial cells from a ΔF508 homozygous CF donor; host or cells: primary human bronchial epithelial cells (CF-HBE), ΔF508 homozygous donor
Outline: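 Primary ΔF508-homozygous CF bronchial epithelial cells on inserts were incubated 48 h at 36.5 °C with compound in IL-13-containing medium. VT and TEER were then recorded in current-clamp mode (pH 7.4 HEPES bath) with benzamil 10 μM, forskolin 10 μM, then CFTR inhibitor-172 20 μM. The IEQ AUC between forskolin and inhibitor was divided by vehicle AUC.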

NBD1 = target: T2, NBD1 (Homo sapiens, UniProt P13569); test: Aggregation analysis using differential static light scattering (DSLS), thermal stability of NBD1 (ΔTagg); assay type: binding; conditions: ΔTagg versus DMSO control, NBD1 0.2 mg/ml
T2 construct: Purified recombinant NBD1 was produced using previously described methods; made in house
Outline: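 Stabilisation is measured as the shift in aggregation onset of recombinant NBD1 (0.2 mg/ml, 2 mM ATP, 5 mM MgCl2, pH7.6) exposed to compound. Images are taken every 0.5° C. while heating at 1° C. per minute, and the inflection-point Tagg is corrected by the DMSO mean.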

T2 sequence (P13569 423-646 limits assumed): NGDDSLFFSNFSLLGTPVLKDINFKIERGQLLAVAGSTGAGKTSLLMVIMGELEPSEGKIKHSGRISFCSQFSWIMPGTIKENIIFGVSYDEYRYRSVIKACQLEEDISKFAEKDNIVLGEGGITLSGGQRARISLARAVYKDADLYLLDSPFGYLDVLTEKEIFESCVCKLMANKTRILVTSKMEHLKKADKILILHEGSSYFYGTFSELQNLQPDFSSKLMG
T1 sequence (P13569 with tags, fused parts or gaps DEL508-508): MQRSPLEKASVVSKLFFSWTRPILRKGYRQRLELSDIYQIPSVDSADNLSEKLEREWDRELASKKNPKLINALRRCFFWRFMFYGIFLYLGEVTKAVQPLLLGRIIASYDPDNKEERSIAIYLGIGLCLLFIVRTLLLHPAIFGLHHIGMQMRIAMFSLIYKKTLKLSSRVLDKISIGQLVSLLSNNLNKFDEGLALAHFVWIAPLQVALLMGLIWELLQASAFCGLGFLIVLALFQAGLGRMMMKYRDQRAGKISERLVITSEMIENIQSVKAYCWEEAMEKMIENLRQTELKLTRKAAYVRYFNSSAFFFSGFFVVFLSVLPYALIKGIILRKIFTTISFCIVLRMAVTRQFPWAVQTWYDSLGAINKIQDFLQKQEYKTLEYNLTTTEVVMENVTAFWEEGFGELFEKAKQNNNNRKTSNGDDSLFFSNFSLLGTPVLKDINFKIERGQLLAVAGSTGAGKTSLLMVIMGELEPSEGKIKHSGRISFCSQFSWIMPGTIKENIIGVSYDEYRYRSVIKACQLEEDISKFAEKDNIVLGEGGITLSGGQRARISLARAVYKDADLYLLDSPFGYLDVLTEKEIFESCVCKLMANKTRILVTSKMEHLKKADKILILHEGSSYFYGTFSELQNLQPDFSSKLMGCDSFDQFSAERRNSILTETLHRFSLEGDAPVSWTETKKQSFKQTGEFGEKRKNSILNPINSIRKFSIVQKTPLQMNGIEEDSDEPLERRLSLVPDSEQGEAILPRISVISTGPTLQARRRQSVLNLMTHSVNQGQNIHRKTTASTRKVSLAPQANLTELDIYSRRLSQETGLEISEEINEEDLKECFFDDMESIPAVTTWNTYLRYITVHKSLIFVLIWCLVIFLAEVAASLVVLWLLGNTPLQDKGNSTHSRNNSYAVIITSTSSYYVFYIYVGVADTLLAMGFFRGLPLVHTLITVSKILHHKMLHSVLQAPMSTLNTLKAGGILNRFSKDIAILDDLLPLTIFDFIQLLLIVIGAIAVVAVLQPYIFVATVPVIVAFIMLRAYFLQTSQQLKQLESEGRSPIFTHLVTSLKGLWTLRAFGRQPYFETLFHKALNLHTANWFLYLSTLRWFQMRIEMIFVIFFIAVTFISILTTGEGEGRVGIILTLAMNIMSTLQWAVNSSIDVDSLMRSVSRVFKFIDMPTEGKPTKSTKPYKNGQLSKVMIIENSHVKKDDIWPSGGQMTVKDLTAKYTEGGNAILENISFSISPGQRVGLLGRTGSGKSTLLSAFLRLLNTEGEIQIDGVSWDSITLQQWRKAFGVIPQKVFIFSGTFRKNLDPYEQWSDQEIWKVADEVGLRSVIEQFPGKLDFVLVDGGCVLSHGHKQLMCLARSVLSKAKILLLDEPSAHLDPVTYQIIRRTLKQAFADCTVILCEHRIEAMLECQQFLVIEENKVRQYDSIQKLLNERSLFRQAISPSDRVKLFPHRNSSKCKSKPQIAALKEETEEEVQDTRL

Row | Compound | TECC (AUC, 10 μM) (CFTR) | DSLS 3D (100 μM ΔT) (NBD1)
1 | C[C@@H](Cc1cccc(C2(C)CCCC(C)(C)CS(=O)(=O)CCc3c(c(F)cc4[nH]ccc34)Oc3ccc(F)c(c3)-c3nc2nn3C)c1)C(=O)N(C)O (single isomer, unassigned) [Compound 187] | A (a TECC value less than 12 is marked “A”) | B (a value above 5 °C and less than or equal to 10 °C is marked “B”)
2 | Cn1nc2nc1-c1cc(ccc1F)Oc1c(F)cc3[nH]ccc3c1Cc1ccn(n1)CCS(=O)(=O)CCC2(C)c1cccc(CCC(=O)O)c1 (single isomer, unassigned) [Compound 100B, 3-[3-(24,30-difluoro-3,6-dimethyl-9,9-dioxo-26-oxa-9λ6-thia-3,4,12,21,32,33-hexazahexacyclo[25.3.1.12,5.112,15.017,25.018,22]tritriaconta-1(31),2(33),4,13,15(32),17,19,22,24,27,29-undecaen-6-yl)phenyl]propanoic Acid] | A (a TECC value less than 12 is marked “A”) | A (an ΔTagg value less than or equal to 5 °C is marked “A”)
3 | C[C@@H](Cc1cccc([C@@]2(C)CCCC(C)(C)CS(=O)(=O)CCc3c(c(F)cc4[nH]ccc34)Sc3ccnc(c3)-c3nc2nn3C)c1)C(=O)O [Compound 253, (2S)-3-[3-[(6R)-22-fluoro-3,6,10,10-tetramethyl-12,12-dioxo-12λ6,24-dithia-3,4,19,28,30-pentazapentacyclo[23.3.1.12,5.015,23.016,20]triaconta-1(29),2(30),4,15,17,20,22,25,27-nonaen-6-yl]phenyl]-2-methyl-propanoic Acid] | B (a value between 12-20 is marked “B”) | C (a value greater than 10 °C and less than or equal to 25 °C is marked “C”)
4 | C[C@H](Cc1cccc([C@@]2(C)CCCC(C)(C)CS(=O)(=O)CCc3c(c(F)cc4[nH]ccc34)Oc3cncc(c3)-c3nc2nn3C)c1)C(=O)O [Compound 202, (2R)-3-[3-[(6R)-22-fluoro-3,6,10,10-tetramethyl-12,12-dioxo-24-oxa-12λ6-thia-3,4,19,27,30-pentazapentacyclo[23.3.1.12,5.015,23.016,20]triaconta-1(29),2(30),4,15,17,20,22,25,27-nonaen-6-yl]phenyl]-2-methyl-propanoic Acid] | C (a value between 20 and 80 is marked “C”) | C (a value greater than 10 °C and less than or equal to 25 °C is marked “C”)
5 | C[C@H](Cc1cccc([C@@]2(C)CCCC(C)(C)CS(=O)(=O)CCc3c(c(F)cc4[nH]ccc34)Cc3ccnc(c3)-c3nc2nn3C)c1)C(=O)O [Compound 234, (2R)-3-[3-[(6R)-22-fluoro-3,6,10,10-tetramethyl-12,12-dioxo-12λ6-thia-3,4,19,28,30-pentazapentacyclo[23.3.1.12,5.015,23.016,20]triaconta-1(29),2(30),4,15,17,20,22,25,27-nonaen-6-yl]phenyl]-2-methyl-propanoic Acid] | B (a value between 12-20 is marked “B”) | C (a value greater than 10 °C and less than or equal to 25 °C is marked “C”)
6 | Cc1c2nnn1Cc1c(c(F)cc3[nH]ccc13)Oc1ccc(F)c(c1)-c1nc(nn1C)C(C)(c1cccc(CCC(=O)O)c1)CCS(=O)(=O)C2 (single isomer, unassigned) [Compound 101A, 3-[3-(23,29-difluoro-3,6,31-trimethyl-9,9-dioxo-25-oxa-9lambda6-thia-3,4,12,13,14,20,32-heptazahexacyclo[24.3.1.12,5.111,14.016,24.017,21]-dotriaconta-1(30),2(32),4,11(31),12,16,18,21,23,26,28-undecaen-6-yl)phenyl]propanoic Acid] | A (a TECC value less than 12 is marked “A”) | A (an ΔTagg value less than or equal to 5 °C is marked “A”)
7 | Cn1nc2nc1-c1cc(ccc1F)Oc1c(F)c(F)c3[nH]ccc3c1CCS(=O)(=O)CC(C)(C)CCCC2(C#N)c1cccc(CC2(C(=O)O)CC2)c1 (single isomer, unassigned) [Compound 121A, 1-[[3-(6-cyano-21,22,28-trifluoro-3,10,10-trimethyl-12,12-dioxo-24-oxa-12λ6-thia-3,4,19,30-tetrazapentacyclo[23.3.1.12,5.015,23.016,20]triaconta-1(29),2(30),4,15,17,20,22,25,27-nonaen-6-yl)phenyl]methyl]cyclopropanecarboxylic Acid] | B (a value between 12-20 is marked “B”) | C (a value greater than 10 °C and less than or equal to 25 °C is marked “C”)
8 | COc1ccc2cc1-c1nc(nn1C)C(C)(c1cccc(C[C@@H](C)C(=O)O)c1)CCCC(C)(C)CS(=O)(=O)CCc1c(c(F)cc3[nH]ccc13)C2=O (single isomer, unassigned) [Compound 127A] | A (a TECC value less than 12 is marked “A”) | B (a value above 5 °C and less than or equal to 10 °C is marked “B”)
9 | C[C@H](Cc1cccc(C2(C)CCCC(C)(C)CS(=O)(=O)CCc3c(c(F)cc4[nH]ccc34)Oc3ccc(F)c(c3)-c3nc2c[nH]3)c1)C(=O)O (single isomer, unassigned) [Compound 157B] | A (a TECC value less than 12 is marked “A”) | C (a value greater than 10 °C and less than or equal to 25 °C is marked “C”)
10 | Cn1nc2nc1-c1cc(ccc1F)Oc1c(F)cc3[nH]ccc3c1CCS(=O)(=O)CC(C)(C)CCC[C@]2(C)c1cccc(CC2(C(=O)O)CC2)c1 [Compound 288, 1-[[3-[(6R)-22,28-difluoro-3,6,10,10-tetramethyl-12,12-dioxo-24-oxa-12λ6-thia-3,4,19,30-tetrazapentacyclo[23.3.1.12,5.015,23.016,20]triaconta-1(29),2(30),4,15,17,20,22,25,27-nonaen-6-yl]phenyl]methyl]cyclopropanecarboxylic Acid] | C (a value between 20 and 80 is marked “C”) | C (a value greater than 10 °C and less than or equal to 25 °C is marked “C”)
11 | Cn1nc2nc1-c1cc(ccc1F)Oc1c(F)cc3[nH]ccc3c1CCS(=O)(=O)CC(C)(C)COCC2(C)c1cccc(CC(=O)O)c1 (stereo not shown) [Compound 69, 2-[3-(22,28-Difluoro-3,6,10,10-tetramethyl-12,12-dioxo-8,24-dioxa-12λ6-thia-3,4,19,30-tetrazapentacyclo[23.3.1.12,5.015,23.016,20]triaconta-1(29),2(30),4,15,17,20,22,25,27-nonaen-6-yl)phenyl]acetic Acid] | A (a TECC value less than 12 is marked “A”) | C (a value greater than 10 °C and less than or equal to 25 °C is marked “C”)
